Reference: patent US11814370B2, “Deuterated N-(5-(2,3-dihydrobenzo[b][1,4]dioxine-6-carboxamido)-2-fluorophenyl)-2-((4-ethylpiperazin-1-yl)methyl)quinoline-6-carboxamide” (priority 2016, dated 2023)

Legend:
[1] = system: HSP72 induction (product of HSF1 transcriptional activity) in SK-OV-3 cells; assay: Cell-based ELISA (Cellisa) for HSP72 expression after 17-AAG; parameters: species or system human; conditions: SK-OV-3 ovarian cancer cell line; summary of Table 1
Protocol: Prior to use, the cells were analyzed by short tandem repeat (STR) profiling. Polymorphic STR loci were amplified using a polymerase chain reaction (PCR) primer set. The PCR product (each locus being labelled with a different fluorophore) was analyzed simultaneously with size standards using automated fluorescent detection. The number of repeats at 10 different loci (as recommended by the American Type Culture Collection, ATCC) was used to define the STR profile and this was cross-referenced with online databases to confirm authenticity. […] The cells were free of mycoplasma contamination as determined by a sensitive nested PCR protocol (Venor GeM kit, Minerva Biolabs, Germany). Cells were grown in DMEM/10% FCS, 2 mM glutamine and nonessential amino acids in 5% CO2.
Cell-Based ELISA (Cellisa) for HSP72 Expression
To follow HSP72 protein expression, a product of HSF1 transcriptional activity, the Cellisa was developed. […] The medium was removed and cells were fixed with fixing solution (4% paraformaldehyde, 0.3% TritonX-100 in PBS buffer) for 30 min at 4° C. The plates were then washed with 0.1% Tween-20/deionized water, before blocking with 5% milk for 30 mins at 37° C. […] Following 4× washes, the plates were incubated with europium-labelled anti-mouse antibody (0.6 μg/mL) in Delfia assay buffer (Perkin Elmer) for 1 h at 37° C. […]

[2] = system: SK-OV-3 ovarian cancer cell line; assay: cells; assay type: cell-based; conditions: Homo sapiens, SK-OV-3, 96 h, read-out: SK-OV-3 pGI50 ± SEM (n) (converted)
Protocol: Cells were grown in DMEM/10% FCS, 2 mM glutamine and nonessential amino acids in 5% CO2.
In Vitro Cell Viability Assay
The cell titer blue viability (CTB) (Promega) assay provides a homogenous, fluorometric method for estimating the number of viable cells. It uses the dark blue indicator dye resazurin to measure the metabolic capacity of cells which is an indicator of cell viability. Viable cells are able to reduce resazurin into resorufin (pink), which is highly fluorescent. […] Compounds (at a range of concentrations) were added using the ECHO 550 liquid handler (Labcyte, USA) and then left at 37° C. for 96 h. Titre blue reagent was added to each well and left at 37° C. for 3-4 h. Fluorescence was measured using the Envision machine (Perkin Elmer, UK). The 50% growth inhibitory concentration (GI50) was determined by fitting the data to a dose-response curve without limits using non-linear regression. Each concentration was tested twice.

| Structure (SMILES) | cellular activity (in words) [1] | GI50 [2] [nM] |
| --- | --- | --- |
| [2H]C([2H])([2H])C([2H])([2H])N1CCN(Cc2ccc3cc(C(=O)Nc4cc(NC(=O)c5ccc6c(c5)OCCO6)ccc4F)ccc3n2)CC1 [Compound A, N-(5-(2,3-Dihydrobenzo[b][1,4]dioxine-6-carboxamido)-2-fluorophenyl)-2-((4-ethyl-d5-piperazin-1-yl)methyl)quinoline-6-carboxamide] | potent cellular activity | – |
| [2H]C1([2H])N(CC)C([2H])([2H])C([2H])([2H])N(Cc2ccc3cc(C(=O)Nc4cc(NC(=O)c5ccc6c(c5)OCCO6)ccc4F)ccc3n2)C1([2H])[2H] [Compound B, N-(5-(2,3-Dihydrobenzo[b][1,4]dioxine-6-carboxamido)-2-fluorophenyl)-2-((4-ethyl-piperazin-d8-1-yl)methyl)quinoline-6-carboxamide] | – | 18.2 |
| [2H]C1([2H])Oc2ccc(C(=O)Nc3ccc(F)c(NC(=O)c4ccc5nc(CN6CCN(CC)CC6)ccc5c4)c3)cc2OC1([2H])[2H] [Compound C, N-(5-(2,3-Dihydrobenzo-d4-[b][1,4]dioxine-6-carboxamido)-2-fluorophenyl)-2-((4-ethylpiperazin-1-yl)methyl)quinoline-6-carboxamide] | – | 11.5 |
